Measurements: patent US20110281179A1, “NON-AQUEOUS ELECTROLYTIC SOLUTION, AND LITHIUM BATTERY COMPRISING SAME” (UBE INDUSTRIES, LTD., priority 2008, published 2011)

Assay: pKa (acid dissociation constant)
Type: physicochemical
Description: Here, the pKa value is also called an acid dissociation constant, and the pKa can be measured by an ordinary method. For example, the pKa can be determined in accordance with the method described in Experimental Chemistry Seminar 5 “Thermal Measurement and Equilibrium”, p. 460 (edited by the Chemical Society of Japan, published by Maruzen Company, Limited.).

Compound	pKa
Oc1c(F)c(F)cc(F)c1F [2,3,5,6-Tetrafluorophenol]	5.5
Oc1ccc(F)cc1 [4-Fluorophenol]	9.9
Oc1c(Cl)c(Cl)c(Cl)c(Cl)c1Cl [Pentachlorophenol]	4.7

The next lines start with the values.

pKa	Compound
6	Oc1ccc(F)c(F)c1F [2,3,4-Trifluorophenol]
8.4	Oc1ccc(F)cc1F [2,4-Difluorophenol]
